Data taken from ChEMBL document CHEMBL1201862, “PubChem BioAssay data set” (2004).
Activity calls are given as the source filed them.

Assays:
[1] = Luminescence Cell-Based Secondary HTS screen to identify cytotoxic compounds of NIH3T3 cells. [Related pubchem assays: 1885, 1968 ]; type: functional
[2] = T. cruzi infection blockers in NIH3T3 cells – beta-gal luminescence, NIH3T3 host cells, confirmation (AID 2630); type: functional, cell-based; conditions: Mus musculus
[3] = Luminescence Cell-Based/Microorganism Confirmation at Dose of Inhibitors of Trypanosoma cruzi Infection. [Related pubchem assays: 1885, 1968 ]; type: functional
[4] = molecular target: T1, Dual specificity protein phosphatase 6 (Rattus norvegicus, UniProt Q64346); assay: inhibition of rat DUSP6 enzyme activity – biochemical, in vitro, primary screen (AID 425)
T1 sequence (Q64346 whole entry): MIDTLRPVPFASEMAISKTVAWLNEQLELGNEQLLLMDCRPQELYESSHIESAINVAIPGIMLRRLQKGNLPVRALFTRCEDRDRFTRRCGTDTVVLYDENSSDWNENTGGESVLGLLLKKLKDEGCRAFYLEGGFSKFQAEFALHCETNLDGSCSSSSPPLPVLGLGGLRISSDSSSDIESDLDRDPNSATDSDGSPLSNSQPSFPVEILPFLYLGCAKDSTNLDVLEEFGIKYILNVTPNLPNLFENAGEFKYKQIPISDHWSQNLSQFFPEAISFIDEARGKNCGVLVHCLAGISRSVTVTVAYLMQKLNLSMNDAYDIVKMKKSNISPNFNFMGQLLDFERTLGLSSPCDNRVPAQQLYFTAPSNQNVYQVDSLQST

[5] = molecular target: Guanyl-specific ribonuclease T1 (Aspergillus oryzae (strain ATCC 42149 / RIB 40), UniProt P00651); assay: inhibition of ribonuclease T1 activity – biochemical, fluorescence polarization, 1536-well, counter-screen for TPT1 inhibitor project, dose response (AID 2167)
Chain of Guanyl-specific ribonuclease T1 (P00651 whole entry): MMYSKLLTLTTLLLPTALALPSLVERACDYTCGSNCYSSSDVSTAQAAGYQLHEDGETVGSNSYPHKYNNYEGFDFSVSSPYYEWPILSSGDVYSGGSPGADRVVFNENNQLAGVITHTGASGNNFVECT

[6] = molecular target: Likely tRNA 2'-phosphotransferase (Candida albicans (strain SC5314 / ATCC MYA-2876) (Yeast), UniProt Q5A7N4); assay: inhibition of Candida TPT1 enzyme activity – biochemical, fluorescence polarization, dose response (AID 2160)
Chain of Likely tRNA 2'-phosphotransferase (Q5A7N4 whole entry): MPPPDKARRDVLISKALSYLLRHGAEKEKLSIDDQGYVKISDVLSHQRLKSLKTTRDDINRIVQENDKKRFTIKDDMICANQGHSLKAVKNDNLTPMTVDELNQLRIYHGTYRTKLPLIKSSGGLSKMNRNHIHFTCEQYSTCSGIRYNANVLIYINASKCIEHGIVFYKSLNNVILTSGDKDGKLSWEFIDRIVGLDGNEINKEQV

[7] = molecular target: Lysine-specific demethylase 4C (Homo sapiens, UniProt Q9H3R0); assay: inhibition of JMJD2C H3K9me3 demethylation – biochemical, DELFIA europium, cherry-picked samples, dose response (AID 488835); type: functional
Chain of Lysine-specific demethylase 4C (Q9H3R0 whole entry): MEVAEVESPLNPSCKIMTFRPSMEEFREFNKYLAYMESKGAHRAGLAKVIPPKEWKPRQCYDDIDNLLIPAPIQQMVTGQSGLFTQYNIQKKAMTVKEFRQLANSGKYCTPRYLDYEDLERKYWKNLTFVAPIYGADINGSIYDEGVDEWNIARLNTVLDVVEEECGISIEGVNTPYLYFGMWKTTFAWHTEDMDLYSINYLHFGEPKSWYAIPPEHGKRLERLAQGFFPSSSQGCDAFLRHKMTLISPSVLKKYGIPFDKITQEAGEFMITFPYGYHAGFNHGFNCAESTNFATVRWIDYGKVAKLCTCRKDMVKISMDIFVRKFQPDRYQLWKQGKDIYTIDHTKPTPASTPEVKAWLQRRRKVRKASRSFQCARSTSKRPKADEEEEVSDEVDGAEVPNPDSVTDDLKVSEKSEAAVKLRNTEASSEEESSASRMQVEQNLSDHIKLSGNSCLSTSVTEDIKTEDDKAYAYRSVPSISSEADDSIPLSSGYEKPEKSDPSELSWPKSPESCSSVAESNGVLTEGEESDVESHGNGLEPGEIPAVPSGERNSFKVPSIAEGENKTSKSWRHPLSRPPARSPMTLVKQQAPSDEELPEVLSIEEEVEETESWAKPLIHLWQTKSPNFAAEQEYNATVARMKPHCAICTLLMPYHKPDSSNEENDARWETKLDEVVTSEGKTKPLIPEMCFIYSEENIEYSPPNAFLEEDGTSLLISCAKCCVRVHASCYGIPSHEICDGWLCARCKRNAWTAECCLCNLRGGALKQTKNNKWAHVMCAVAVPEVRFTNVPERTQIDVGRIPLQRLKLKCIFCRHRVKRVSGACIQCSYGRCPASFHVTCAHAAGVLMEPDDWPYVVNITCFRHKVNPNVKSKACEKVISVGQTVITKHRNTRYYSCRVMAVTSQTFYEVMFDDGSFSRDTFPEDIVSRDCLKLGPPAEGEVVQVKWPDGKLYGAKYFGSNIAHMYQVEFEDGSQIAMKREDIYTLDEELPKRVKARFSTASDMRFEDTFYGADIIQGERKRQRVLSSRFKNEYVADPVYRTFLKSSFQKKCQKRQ

[8] = molecular target: T2, Dual specificity protein phosphatase 3 (Homo sapiens, UniProt P51452); assay: VHR1 phosphatase inhibitors, primary screen, biochemical, absorbance, uHTS (AID 1654)
T2 sequence (P51452 whole entry): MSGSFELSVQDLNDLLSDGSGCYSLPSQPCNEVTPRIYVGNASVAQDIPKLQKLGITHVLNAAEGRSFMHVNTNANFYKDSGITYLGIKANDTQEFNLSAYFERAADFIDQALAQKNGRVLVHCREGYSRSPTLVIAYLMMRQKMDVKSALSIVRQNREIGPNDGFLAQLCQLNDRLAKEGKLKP

[9] = molecular target: T3, Hexokinase HKDC1 (Homo sapiens, UniProt Q2TB90); assay: inhibition of HKDC1 glucose phosphorylation – biochemical, W721R variant, dose response (AID 504729); type: functional
T3 sequence (Q2TB90 whole entry): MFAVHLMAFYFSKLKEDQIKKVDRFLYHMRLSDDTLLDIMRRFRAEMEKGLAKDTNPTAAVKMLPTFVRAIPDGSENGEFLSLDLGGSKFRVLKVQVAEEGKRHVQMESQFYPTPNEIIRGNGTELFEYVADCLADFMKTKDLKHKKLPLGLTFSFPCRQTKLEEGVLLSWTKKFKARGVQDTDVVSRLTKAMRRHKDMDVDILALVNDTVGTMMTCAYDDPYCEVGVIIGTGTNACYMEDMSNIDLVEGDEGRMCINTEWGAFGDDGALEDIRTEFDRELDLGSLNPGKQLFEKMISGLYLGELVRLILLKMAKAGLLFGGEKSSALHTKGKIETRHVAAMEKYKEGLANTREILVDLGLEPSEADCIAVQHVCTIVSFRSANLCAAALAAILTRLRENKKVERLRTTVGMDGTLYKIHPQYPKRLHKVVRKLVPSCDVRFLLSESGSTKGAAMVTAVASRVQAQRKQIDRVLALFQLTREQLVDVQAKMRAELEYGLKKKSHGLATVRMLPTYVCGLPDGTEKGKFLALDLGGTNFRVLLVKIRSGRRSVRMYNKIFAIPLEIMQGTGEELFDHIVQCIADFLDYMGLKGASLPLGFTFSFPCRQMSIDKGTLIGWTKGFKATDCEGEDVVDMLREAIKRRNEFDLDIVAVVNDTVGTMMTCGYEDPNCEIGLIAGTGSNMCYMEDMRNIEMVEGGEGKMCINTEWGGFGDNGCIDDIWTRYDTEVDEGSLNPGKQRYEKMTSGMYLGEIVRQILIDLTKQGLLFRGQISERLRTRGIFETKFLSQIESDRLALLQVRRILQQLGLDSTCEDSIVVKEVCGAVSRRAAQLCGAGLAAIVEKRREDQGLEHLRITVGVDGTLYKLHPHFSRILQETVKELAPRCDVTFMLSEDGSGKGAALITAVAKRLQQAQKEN

[10] = molecular target: Lysine-specific demethylase 4A (Homo sapiens, UniProt O75164); assay: inhibition of JMJD2A H3K9me3 demethylation – biochemical, DELFIA europium, cherry-picked samples, selectivity assay for GASC-1 inhibitor project, dose response (AID 488840)
Chain of Lysine-specific demethylase 4A (O75164 whole entry): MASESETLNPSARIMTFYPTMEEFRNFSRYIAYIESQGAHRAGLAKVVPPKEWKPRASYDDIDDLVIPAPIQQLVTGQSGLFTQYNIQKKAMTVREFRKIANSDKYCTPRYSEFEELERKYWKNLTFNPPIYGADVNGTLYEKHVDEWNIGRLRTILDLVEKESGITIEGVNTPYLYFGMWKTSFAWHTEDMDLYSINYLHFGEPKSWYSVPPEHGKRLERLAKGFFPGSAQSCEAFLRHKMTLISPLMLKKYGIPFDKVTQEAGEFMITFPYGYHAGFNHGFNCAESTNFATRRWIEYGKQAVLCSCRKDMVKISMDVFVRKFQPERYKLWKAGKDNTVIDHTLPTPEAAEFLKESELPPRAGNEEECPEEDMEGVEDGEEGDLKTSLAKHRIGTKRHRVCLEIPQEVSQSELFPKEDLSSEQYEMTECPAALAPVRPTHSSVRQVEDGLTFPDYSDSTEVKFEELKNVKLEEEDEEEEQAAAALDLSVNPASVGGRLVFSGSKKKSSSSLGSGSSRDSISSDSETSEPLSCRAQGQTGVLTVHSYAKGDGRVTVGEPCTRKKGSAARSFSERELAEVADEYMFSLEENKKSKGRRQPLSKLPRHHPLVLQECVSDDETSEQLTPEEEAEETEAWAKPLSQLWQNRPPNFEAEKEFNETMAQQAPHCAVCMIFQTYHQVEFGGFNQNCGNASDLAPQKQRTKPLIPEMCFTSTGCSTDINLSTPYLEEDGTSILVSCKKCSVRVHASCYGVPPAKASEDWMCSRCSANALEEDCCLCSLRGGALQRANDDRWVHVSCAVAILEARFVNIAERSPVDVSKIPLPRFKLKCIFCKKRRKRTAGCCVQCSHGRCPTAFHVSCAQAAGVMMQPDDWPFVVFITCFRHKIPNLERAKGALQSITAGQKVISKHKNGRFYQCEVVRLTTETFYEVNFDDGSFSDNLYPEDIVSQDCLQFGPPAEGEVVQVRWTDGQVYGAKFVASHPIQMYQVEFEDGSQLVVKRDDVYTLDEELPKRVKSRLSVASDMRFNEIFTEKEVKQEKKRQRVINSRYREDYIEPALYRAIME

[11] = molecular target: T2, Dual specificity protein phosphatase 3; assay: VHR1 phosphatase inhibitors, biochemical (AID 1878)
[12] = molecular target: CAAX prenyl protease 1 (Saccharomyces cerevisiae S288c, UniProt P47154); assay: yeast CAAX protease Ste24 inhibition – biochemical, S. cerevisiae, plate reader, cherry-pick, dose response (AID 488815)
Chain of CAAX prenyl protease 1 (P47154 whole entry): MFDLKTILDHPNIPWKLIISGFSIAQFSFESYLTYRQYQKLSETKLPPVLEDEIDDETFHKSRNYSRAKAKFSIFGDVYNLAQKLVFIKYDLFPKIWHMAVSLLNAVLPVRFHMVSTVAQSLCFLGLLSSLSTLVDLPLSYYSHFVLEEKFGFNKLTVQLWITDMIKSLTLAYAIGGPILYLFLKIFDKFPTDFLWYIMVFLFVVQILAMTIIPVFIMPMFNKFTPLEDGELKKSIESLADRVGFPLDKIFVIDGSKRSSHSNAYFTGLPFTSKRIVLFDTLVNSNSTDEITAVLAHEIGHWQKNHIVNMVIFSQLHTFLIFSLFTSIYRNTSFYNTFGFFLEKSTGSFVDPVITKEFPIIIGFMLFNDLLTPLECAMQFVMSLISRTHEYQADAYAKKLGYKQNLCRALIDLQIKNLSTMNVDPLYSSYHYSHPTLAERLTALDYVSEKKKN

[13] = molecular target: T4, CAAX prenyl protease 2 (Saccharomyces cerevisiae S288c, UniProt Q03530); type: biochemical
T4 sequence (Q03530 whole entry): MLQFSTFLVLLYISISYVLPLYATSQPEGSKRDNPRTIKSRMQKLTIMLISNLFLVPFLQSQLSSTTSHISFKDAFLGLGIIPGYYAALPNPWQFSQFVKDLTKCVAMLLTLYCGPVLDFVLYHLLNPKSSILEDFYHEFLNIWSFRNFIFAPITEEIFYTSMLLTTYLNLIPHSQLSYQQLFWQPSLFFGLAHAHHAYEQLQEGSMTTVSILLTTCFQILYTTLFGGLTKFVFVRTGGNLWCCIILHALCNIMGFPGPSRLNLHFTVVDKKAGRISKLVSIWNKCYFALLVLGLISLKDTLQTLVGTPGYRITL

[14] = molecular target: Paired box protein Pax-8 (Homo sapiens, UniProt Q06710); assay: PAX8 transcriptional activity inhibition in RMG-I – RMG-I cells, luciferase, cherry-pick, dose response (AID 687027); type: functional, cell-based;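 note: luciferase reporter driven by Pax8 target thyroperoxidase promoter measured by SteadyGlo luminescence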
Chain of Paired box protein Pax-8 (Q06710 whole entry): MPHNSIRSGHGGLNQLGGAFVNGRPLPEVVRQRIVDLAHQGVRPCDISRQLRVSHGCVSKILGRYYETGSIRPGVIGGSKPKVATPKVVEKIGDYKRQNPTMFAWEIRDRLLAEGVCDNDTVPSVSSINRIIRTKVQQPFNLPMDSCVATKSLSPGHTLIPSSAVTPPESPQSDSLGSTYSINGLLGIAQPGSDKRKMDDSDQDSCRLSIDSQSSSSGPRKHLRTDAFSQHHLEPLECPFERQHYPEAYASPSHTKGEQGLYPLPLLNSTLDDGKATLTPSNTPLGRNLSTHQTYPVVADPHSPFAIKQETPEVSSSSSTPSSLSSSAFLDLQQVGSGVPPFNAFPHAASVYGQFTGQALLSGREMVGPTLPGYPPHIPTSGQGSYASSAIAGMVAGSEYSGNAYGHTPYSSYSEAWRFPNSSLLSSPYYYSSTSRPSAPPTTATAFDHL

[15] = potency of ADAM10 substrate cleavage blockers – biochemical, QFRET, dose response (AID 743254);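 note: ADAM10 enzyme with the DM2 quenched FRET peptide as substrate; EDANS fluorescence gain as the protease cuts the substrate; inhibitor potency against ADAM10 proteolytic activity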
[16] = molecular target: Disintegrin and metalloproteinase domain-containing protein 17 (Homo sapiens, UniProt P78536); assay: inhibition of ADAM17 substrate cleavage – biochemical, quenched FRET substrate, counter-screen for ADAM10 exosite inhibitor project, dose response (AID 743253)
Chain of Disintegrin and metalloproteinase domain-containing protein 17 (P78536 whole entry, the tested form may be a part): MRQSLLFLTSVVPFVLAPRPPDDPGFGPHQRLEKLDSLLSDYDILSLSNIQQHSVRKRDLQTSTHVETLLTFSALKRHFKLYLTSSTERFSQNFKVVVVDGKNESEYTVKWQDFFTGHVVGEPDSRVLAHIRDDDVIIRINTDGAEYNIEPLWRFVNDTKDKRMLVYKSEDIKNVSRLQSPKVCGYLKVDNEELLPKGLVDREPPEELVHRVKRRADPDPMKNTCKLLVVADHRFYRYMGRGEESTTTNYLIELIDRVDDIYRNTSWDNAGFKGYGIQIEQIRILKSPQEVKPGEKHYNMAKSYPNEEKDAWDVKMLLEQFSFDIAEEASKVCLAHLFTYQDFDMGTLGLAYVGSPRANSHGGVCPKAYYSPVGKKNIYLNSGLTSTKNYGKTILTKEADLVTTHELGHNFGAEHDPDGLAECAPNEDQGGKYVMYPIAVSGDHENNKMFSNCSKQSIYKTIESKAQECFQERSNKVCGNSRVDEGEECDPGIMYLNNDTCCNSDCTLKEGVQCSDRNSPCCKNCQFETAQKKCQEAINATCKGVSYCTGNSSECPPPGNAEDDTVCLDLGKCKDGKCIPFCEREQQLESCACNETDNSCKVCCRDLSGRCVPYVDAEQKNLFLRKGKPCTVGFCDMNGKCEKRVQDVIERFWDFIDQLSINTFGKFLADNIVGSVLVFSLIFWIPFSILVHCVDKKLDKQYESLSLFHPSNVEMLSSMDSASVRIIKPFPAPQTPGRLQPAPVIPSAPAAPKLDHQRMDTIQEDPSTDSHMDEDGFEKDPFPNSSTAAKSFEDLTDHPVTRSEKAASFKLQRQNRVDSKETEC

In the case of `Fc1ccc(CCNCc2ccc(Cl)c(Cl)c2)cc1`, the EC50 [1] is reported as > 195 µM (not active), the EC50 [2] is reported as 0.915 µM (active) and the EC50 [3] is reported as 0.915 µM (active).

In the case of `COc1ccc(OC)c(N2C(=O)/C(=C/c3ccco3)C(=O)NC2=S)c1`, the IC50 [4] is reported as < 1.23 µM (not active), the IC50 [5] is reported as > 55.7 µM (not active) and the IC50 [6] is reported as 8.01 µM (active). For the same compound, the AC50 [7] was 4.67 µM (active), the IC50 [8] was < 1.23 µM (inactive) and the IC50 [9] was 2.57 µM (active). The AC50 [10] was 16.2 µM (active) and the IC50 [11] was < 1.23 µM (inactive).

With `NC(=O)[C@H]1CC2(CC(c3cccc(NC(=O)COc4ccc(Cl)cc4)c3)=NO2)CN1C(=O)C(c1ccccc1)c1ccccc1` (stereo partly specified) the AC50 [12] was 5.73 µM (active), the AC50 [13] was 2.68 µM (active) and the AC50 [14] was 15.7 µM (active). For the same compound, the IC50 [15] was > 69.5 µM (inactive) and the IC50 [16] was > 69.5 µM (inactive).
